Legend:
[1] = target: recombinant thioesterase TE1 (recombinant FASN-TE) (Homo sapiens, UniProt P49327); experiment: Recombinant thioesterase inhibition assay (TE1); assay type: biochemical; conditions: for inhibition at 10 µM: 10 μM compound, 30 min pre-incubation at 37° C., 4-MUH substrate; for IC50: recombinant thioesterase, approximate, read-out: approx, IC50 TE1
Description: (§1) Key to Table 2: Recombinant Thioesterase Inhibition Assay.
(§2) Briefly, recombinant FASN-TE (250 nM, 100 mM TRIS pH 7.4, 50 mM NaCl, 1 mM EDTA) was pre-incubated with inhibitors for 30 min at 37° C. prior to the addition of fluorogenic substrate, 4-methylumbelliferyl heptanoate (4-MUH, 120 μM) (56); the reaction was then monitored by following the increase in fluorescence using a Tecan Safire^2 96-well plate reader using 350/450 excitation/emission wavelengths. The IC50 values are then determined for each compound in the series.

[2] = target: recombinant thioesterase TE2 (recombinant FASN-TE) (Homo sapiens, UniProt P49327); experiment: Recombinant thioesterase inhibition assay (TE2); assay type: biochemical; conditions: for inhibition at 10 µM: 10 μM compound, 30 min pre-incubation at 37° C., 4-MUH substrate; for IC50: recombinant thioesterase, approximate, read-out: approx, IC50 TE2
Sequence of recombinant thioesterase TE2 (recombinant FASN-TE) (P49327 2200-2511): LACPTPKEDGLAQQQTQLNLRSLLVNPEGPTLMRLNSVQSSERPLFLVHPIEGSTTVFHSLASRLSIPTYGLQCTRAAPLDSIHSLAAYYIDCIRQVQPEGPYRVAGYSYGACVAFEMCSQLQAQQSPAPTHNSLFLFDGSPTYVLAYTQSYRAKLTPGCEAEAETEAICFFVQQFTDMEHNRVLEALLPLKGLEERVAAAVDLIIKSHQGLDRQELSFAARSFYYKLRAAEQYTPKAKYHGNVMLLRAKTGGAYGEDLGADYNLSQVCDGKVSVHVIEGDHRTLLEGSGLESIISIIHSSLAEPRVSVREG
Description: as §1, §2

[3] = system: intracellular FASN in PC3 cells; experiment: Inhibition of 14C-acetate incorporation in PC3 cells; assay type: cell-based; conditions: for % inhibition of 14C-acetate incorp. PC3 cells: two hours drug, then two hour labeling, concentration not given
Description: Inhibition of ^14C-Acetate Incorporation in PC3 Cells.
This test ensures that the compound(s) target intracellular FASN correctly. The ability to inhibit FASN activity in cells will be performed by metabolic labeling of newly synthesized fatty acids with ^14C-acetate, as we have described previously. Briefly, PC-3 cells were seeded in 24-well plates at 50,000 cells per well. After 48 hours media was replaced with fresh media containing either drug or DMSO vehicle. As with the toxicity assay described below, the IC50 for the ability to inhibit FASN will also be determined. Cells will be incubated with a dose of each derivative compound that reflects the IC50's determined in the MTS assays. After two hours, 1 μCi of ^14C-acetate was added to each well for a two hour labeling period. The cells are then washed with PBS and collected by trypsinization. Lipids were finally isolated by Folch extraction and quantified by scintillation counting. The IC50 value for each compound against FASN in cells can then be determined.

[4] = system: PC3 prostate tumor cells; experiment: MTS cell survival assay, PC3; assay type: cell-based; conditions: doses 1-50 μM, time point not given
Description: (§3) Prostate tumor (PC3, DU145) and normal fibroblast controls (FS-4) cells were individually seeded in 96-well plates at a density of 4,000 cells per well. After 48 hours the cells are be treated with a dose of each compound (1-50 μM) or DMSO vehicle in fresh media. Cell viability of each cell line was then determined after 24, 48 and 72 hours of treatment with each compound by MTS assay (Roche). MTS assays provide a relative measure of cell viability based on the ability of mitochondria to metabolize a tetrazolium substrate to a colored formazan product. Viability is determined by colorimetric readout at 492 nm and determined relative to vehicle only treated cells. The IC50 for each drug, at each time point, will be determined by curve fitting.

[5] = system: FS-4 normal fibroblast cells; experiment: MTS cell survival assay, FS-4; assay type: cell-based; conditions: FS-4 normal fibroblasts, doses 1-50 μM, time point not given
Description: as §3

[6] = system: DU-145 prostate tumor cells; experiment: MTS cell survival assay, DU-145; assay type: cell-based; conditions: Homo sapiens, doses 1-50 μM, time point not given
Description: as §3

Sequence of recombinant thioesterase TE1 (recombinant FASN-TE) (P49327 2207-2511 limits assumed): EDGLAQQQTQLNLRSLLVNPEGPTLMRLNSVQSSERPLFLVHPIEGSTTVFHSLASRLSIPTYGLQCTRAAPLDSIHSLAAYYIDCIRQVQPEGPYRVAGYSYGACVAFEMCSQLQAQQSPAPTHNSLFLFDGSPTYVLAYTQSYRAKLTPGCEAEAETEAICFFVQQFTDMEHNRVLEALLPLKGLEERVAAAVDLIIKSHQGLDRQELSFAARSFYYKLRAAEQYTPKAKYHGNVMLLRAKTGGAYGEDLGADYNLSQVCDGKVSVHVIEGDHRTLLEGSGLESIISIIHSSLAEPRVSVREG

Compound	inhibition at 10 µM [1] [%]	inhibition at 10 µM [2] [%]	IC50 [1] [nM]	IC50 [2] [nM]	IC50 ([3]; Homo sapiens, PC-3, read-out: IC50 of inhibition of 14C-acetate incorp. PC3 cells) [µM]	% inhibition of 14C-acetate incorp. PC3 cells [3] [%]	IC50 [4] [µM]	IC50 [5] [µM]	IC50 [6] [µM]
CCOC(=O)c1n[nH]c2c1C(=O)C(Sc1ccc(-c3ccccc3)cc1)=CC2=O [TPI-00411-00-A]	70.5	97.4	–	–	–	0.75	–	–	–
CCOC(=O)c1n[nH]c2c1C(=O)C(Sc1cccc(OC)c1)=CC2=O [TPI-00412-00-A]	81.6	98	–	–	–	9.95	–	–	–
CCOC(=O)c1n[nH]c2c1C(=O)C(SCc1cccc(F)c1)=CC2=O [TPI-00406-00-A]	73.6	96	–	–	–	37.7	–	–	–
CCOC(=O)c1n[nH]c2c1C(=O)C(SCc1ccc(F)cc1F)=CC2=O [TPI-00407-00-A]	66	94.9	–	–	–	37.8	–	–	–
CCOC(=O)c1n[nH]c2c1C(=O)C(SCC(=O)Nc1ccccc1)=CC2=O [TPI-00422-00-A]	22.9	86.8	–	–	–	0	48	> 50	–
CCOC(=O)c1n[nH]c2c1C(=O)C(SCc1ccc(C(F)(F)F)cc1)=CC2=O [TPI-00408-00-A]	67.9	96.2	–	–	–	89.9	18.5	22.5	–
O=C(Nc1ccccc1)c1n[nH]c2c1C(=O)C(SCCCCO)=CC2=O [TPI-00423-00-A]	79.8	98	–	–	–	87.25	20	25	–
CCOC(=O)c1n[nH]c2c1C(=O)C(SC1CCCC1)=CC2=O [TPI-00414-00-A]	52.2	86.4	–	–	–	92.4	25	33	–
CCOC(=O)c1n[nH]c2c1C(=O)C(Sc1ccccc1)=CC2=O [TPI-00415-00-A]	79.7	97.5	–	–	–	7.05	–	–	–
COc1cc(O)c2onc(-c3ccccc3)c2c1O [TPI-00401-00-A]	40	55.9	–	–	–	29.1	33	–	> 50
CNC(=O)CSC1=CC(=O)c2[nH]ncc2C1=O [TPI-00421-00-A]	100	100	~1020	–	–	70	17.9	41	–
O=C(Nc1ccccc1)c1n[nH]c2c1C(=O)C(SCc1ccc(C(F)(F)F)cc1)=CC2=O [TPI-00424-00-A]	92.6	100	–	–	–	0	27	50	–
C=C1C=C(S)C(=O)c2c(C(=O)OCC)n[nH]c21 [TPI-00403-00-A]	69.3	79.3	~3900	~2420	6.75	97	3.25	9.15	15.6
CCOC(=O)c1n[nH]c2c1C(=O)C(SCc1ccc(OC)cc1)=CC2=O [TPI-00416-00-A]	64.3	96.5	–	–	–	89.9	25.8	33	–
CCOC(=O)c1n[nH]c2c1C(=O)C(SCc1ccc(Cl)cc1)=CC2=O [TPI-00417-00-A]	74.8	97.8	–	–	–	96.1	13.8	21	–

Further lines, with some results ahead:

inhibition at 10 µM [1] [%]	inhibition at 10 µM [2] [%]	IC50 [1] [nM]	IC50 [2] [nM]	IC50 ([3]; Homo sapiens, PC-3, read-out: IC50 of inhibition of 14C-acetate incorp. PC3 cells) [µM]	Compound	% inhibition of 14C-acetate incorp. PC3 cells [3] [%]	IC50 [4] [µM]	IC50 [5] [µM]	IC50 [6] [µM]
62	95.3	–	–	–	CCOC(=O)c1n[nH]c2c1C(=O)C(SCCC(=O)OC)=CC2=O [TPI-00420-00-A]	68.5	37.5	42	–
65.5	95.9	–	–	–	CCOC(=O)c1n[nH]c2c1C(=O)C(SCc1ccco1)=CC2=O [TPI-00418-00-A]	92.2	31.7	37	–
53.5	92.2	–	–	–	CCOC(=O)c1n[nH]c2c1C(=O)C(SCC(=O)NC)=CC2=O [TPI-00409-00-A]	0	–	–	–
66.6	95.7	~2350	~560	–	C=C1C=C(SCC)C(=O)c2c(C(=O)OCC)n[nH]c21 [TPI-00402-00-A]	90.4	18.8	20.9	40
59.6	91.7	–	–	–	CCOC(=O)c1n[nH]c2c1C(=O)C(SCCCCO)=CC2=O [TPI-00410-00-A]	1.85	–	–	–
66.2	95.8	–	–	–	CCCCCCCSC1=CC(=O)c2[nH]nc(C(=O)OCC)c2C1=O [TPI-00419-00-A]	67.95	32	50	–
69.5	96.8	~2780	~410	–	CCOC(=O)c1n[nH]c2c1C(=O)C(SCC(=O)OC)=CC2=O [TPI-00405-00-A]	–	–	–	–
50.2	94.8	–	–	–	CCOC(=O)c1n[nH]c2c1C(=O)C(SCCOCCOC)=CC2=O [TPI-00413-00-A]	20.2	–	–	–

Source: patent publication US10071076B2, “Methods of treating cancer and other disorders” (Wake Forest University Health Sciences, priority 2010, dated 2018)
